In publication PMC5667636 (Antiviral Research, 2017):

Experiments:
[1] = test system: neuraminidase (NA) of A(H1N1)pdm09 viruses; details: cited from earlier work
[2] = test system: neuraminidase (NA) of A(H1N1)pdm09 viruses; assay type: biochemical, influenza A(H1N1)pdm09 virus
[3] = test system: neuraminidase (NA) of B/Yamagata-lineage viruses; assay type: biochemical, influenza B/Yamagata-lineage virus

Compound | effect on inhibition (IC50 fold) [1] | IC50 fold-change of viruses exhibiting RI/HRI [2] | inhibition phenotype in NAI assay (NI/RI/HRI) [3]
CCOC(=O)C1=C[C@@H](OC(CC)CC)[C@H](NC(C)=O)[C@@H](N)C1 [Oseltamivir, oseltamivir] | 5- to 8 fold | – | –
CCC(CC)[C@H](NC(C)=O)[C@@H]1[C@H](O)[C@@H](C(=O)O)C[C@H]1N=C(N)N [Peramivir, peramivir] | – | 10- to 6270 fold | borderline RI
CC(=O)N[C@H]1[C@H]([C@H](O)[C@H](O)CO)OC(C(=O)O)=C[C@@H]1N=C(N)N [Zanamivir, zanamivir] | – | – | borderline RI
